Experimental data taken from patent US10660967B2, “Curcumin conjugates and methods of use thereof” (priority 2016, dated 2020).
Where “and” joins values, the source holds several entries; their conditions need not be identical. Identical values can stand only once.

System: carrageenan induced paw edema
Assay: Anti-inflammatory activity: acute carrageenan induced paw edema in rats
Assay type: in vivo, Wister rats
Conditions: 10 mg kg^−1 indomethacin mol equivalent; for % inhibition of edema / Mean edema thickness: intraperitoneally; for Mean edema thickness: mean ± SE; for Potency (% inhibition of edema relative to that of indomethacin reference standard): at 4 h effect
Experimental: The anti-inflammatory activity of the tested compounds was determined in vivo by the acute carrageenan induced paw edema standard method in rats. See, Naumov, et al., Bioorg. Med. Chem. Lett, 25: 2314-2320 (2015), Tiwari, et al., Org. Biomol. Chem, 12: 7238-7249 (2014), Girgis, et al., Eur. J. Med. Chem, 50: 1-8 (2012), Barsoum, et al., Eur. J. Med. Chem, 44: 2172-2177 (2009), Girgis, et al., Eur. J. Med. Chem, 44: 1972-1977 (2009), Girgis, et al., Eur. J. Med. Chem, 44: 1257-1264 (2009), Girgis, et al., Eur. J. Med. Chem, 44: 91-100 (2009), Girgis, et al., Eur. J. Med. Chem, 43: 2116-2121 (2008), Girgis, et al., Bioorg. Med. Chem, 14: 8527-8532 (2006), and Barsoum, et al., Bioorg. Med. Chem, 14: 3929-3937 (2006).
Adult Wister rats of either sex (pregnant female animals were excluded) weighing 120-150 g were divided into 18 groups of 6 animals each. […] The control group was given DMSO only. Carrageenan paw edema was induced by subcutaneous injection of freshly prepared 1% solution of carrageenan in saline (0.9%, 0.1 ml per rat) into subplantar tissue of the right hind paw of rats. The thickness of the paw was measured (in mm) after successive time intervals (1, 2,3,4 and 24 h) and compared with the initial hind paw thickness of each rat for determining the edema thickness. Data were collected, checked, revised and analyzed. Quantitative variables from normal distribution were expressed as means±SE “standard error”. The anti-inflammatory activity was expressed as percentage inhibition of edema thickness in treated animals in comparison with the control group according to eqn. (1)
Where, Vc and Vt are the mean of edema paw thickness for the control and tested compound treated animal groups, respectively.

Row | SMILES | % inhibition of edema (1 h) | Mean edema thickness (1 h) | % inhibition of edema (2 h) | Mean edema thickness (2 h) | % inhibition of edema (3 h) | Mean edema thickness (3 h) [mm] | % inhibition of edema (4 h) | Mean edema thickness (4 h) [mm] | % inhibition of edema (24 h) | Mean edema thickness (24 h) | Potency (% inhibition of edema relative to that of indomethacin reference standard)
1 | COc1cc(/C=C/C(=O)CC(=O)/C=C/c2ccc(OC(=O)[C@H](C)N)c(OC)c2)ccc1OC(=O)[C@H](C)N.Cl.Cl [Compound 35] | 37% | 1.51 ± 0.12 mm | 42% | 1.19 ± 0.10 mm | 53% | 0.85 ± 0.09 | 66% | 0.47 ± 0.04 | 16% | 0.70 ± 0.06 mm | 76
2 | COc1cc(/C=C/C(=O)CC(=O)/C=C/c2ccc(OC(=O)[C@H](Cc3ccccc3)NC(=O)OCc3ccccc3)c(OC)c2)ccc1OC(=O)[C@H](Cc1ccccc1)NC(=O)OCc1ccccc1 [Compound 11] | 59% | 1.00 ± 0.07 mm | 24% | 1.56 ± 0.09 mm | 9% | 1.63 ± 0.16 | 5% | 1.38 ± 0.10 | 1% | 0.82 ± 0.13 mm | 6
3 | COc1cc(/C=C/C(=O)CC(=O)/C=C/c2ccc(OC(=O)CCN)c(OC)c2)ccc1OC(=O)CCN.Cl.Cl [Compound 38] | 69% | 0.74 ± 0.09 mm | 71% | 0.60 ± 0.06 mm | 77% | 0.42 ± 0.03 | 89% | 0.16 ± 0.04 | 72% | 0.23 ± 0.01 mm | 102
4 | COc1cc(/C=C/C(=O)CC(=O)/C=C/c2ccc(OC(=O)[C@@H](NC(=O)OC(C)(C)C)C(C)C)c(OC)c2)ccc1OC(=O)[C@@H](NC(=O)OC(C)(C)C)C(C)C [Compound 30] | 13% | 2.09 ± 0.21 mm | 24% | 1.57 ± 0.19 mm | 25% | 1.34 ± 0.11 | 43% | 0.80 ± 0.08 | 30% | 0.58 ± 0.10 mm | 49
5 | COc1cc(/C=C/C(=O)CC(=O)/C=C/c2ccc(OC(=O)[C@H](CCC(N)=O)NC(=O)OC(C)(C)C)c(OC)c2)ccc1OC(=O)[C@H](CCC(N)=O)NC(=O)OC(C)(C)C [Compound 32] | 10% | 2.16 ± 0.17 mm | 16% | 1.73 ± 0.09 mm | 32% | 1.22 ± 0.12 | 41% | 0.83 ± 0.06 | 57% | 0.36 ± 0.02 mm | 47
6 | COc1cc(/C=C/C(=O)CC(=O)/C=C/c2ccc(OC(=O)C(C)NC(=O)OC(C)(C)C)c(OC)c2)ccc1OC(=O)C(C)NC(=O)OC(C)(C)C (stereo not shown) [Compound 25] | 11% | 2.15 ± 0.14 mm | 16% | 1.74 ± 0.18 mm | 25% | 1.34 ± 0.20 | 40% | 0.84 ± 0.12 | 29% | 0.59 ± 0.09 mm | 46
7 | CC[C@H](C)[C@H](N)C(=O)Oc1ccc(/C=C/C(=O)CC(=O)/C=C/c2ccc(OC(=O)[C@@H](N)[C@@H](C)CC)c(OC)c2)cc1OC.Cl.Cl [Compound 42] | 59% and 33% | 0.99 ± 0.09 mm and 1.61 ± 0.07 mm | 54% and 36% | 0.95 ± 0.09 mm and 1.31 ± 0.09 mm | 65% and 47% | – | 98% and 76% | – | 35% and 30% | 0.54 ± 0.01 mm and 0.58 ± 0.08 mm | 113 and 87
8 | COc1cc(/C=C/C(=O)CC(=O)/C=C/c2ccc(OC(=O)[C@H](CC(C)C)NC(=O)OCc3ccccc3)c(OC)c2)ccc1OC(=O)[C@H](CC(C)C)NC(=O)OCc1ccccc1 [Compound 9] | 34% | 1.59 ± 0.18 mm | 10% | 1.85 ± 0.21 mm | 10% | 1.61 ± 0.18 | 11% | 1.25 ± 0.09 | 1% | 0.82 ± 0.08 mm | 13
9 | COc1cc(/C=C/C(=O)CC(=O)/C=C/c2ccc(OC(=O)[C@H](Cc3c[nH]c4ccccc34)NC(=O)OCc3ccccc3)c(OC)c2)ccc1OC(=O)[C@H](Cc1c[nH]c2ccccc12)NC(=O)OCc1ccccc1 [Compound 12] | 37% | 1.52 ± 0.27 mm | 28% | 1.48 ± 0.22 mm | 24% | 1.36 ± 0.26 | 12% | 1.23 ± 0.19 | 1% | 0.82 ± 0.17 mm | 14
10 | CC(C)Cc1ccc(C(C)C(=O)O)cc1 (stereo not shown) [Compound 3] | 20% | 1.93 ± 0.21 mm | 60% | 0.82 ± 0.13 mm | 65% | 0.63 ± 0.09 | 79% | 0.29 ± 0.01 | 14% | 0.71 ± 0.04 mm | –
11 | COc1cc(/C=C/C(=O)CC(=O)/C=C/c2ccc(OC(=O)[C@H](Cc3ccccc3)NC(=O)OCC3c4ccccc4-c4ccccc43)c(OC)c2)ccc1OC(=O)[C@H](Cc1ccccc1)NC(=O)OCC1c2ccccc2-c2ccccc21 [Compound 18] | 10% | 2.17 ± 0.24 mm | 41% | 1.22 ± 0.16 mm | 54% | 0.82 ± 0.08 | 60% | 0.56 ± 0.04 | 5% | 0.79 ± 0.02 mm | 69
